Test results taken from patent US20100015174A1, “METHOD TO CONTROL DENGUE VIRUSES IN HUMANS BY PICOLINIC ACID AND DERIVATIVES THEREOF” (priority 2008, published 2010).
In brackets after ≈: the same amount, converted by molar mass. Several values for one entry are separate records, joined by “and”; a condition that tells them apart may be missing. Equal entries are not always repeated. Where two headings read alike, the source gives them in different places.

Legend:
[1] = tested on: HepG2.2.15 cells; assay: Toxicity to HepG2.2.15 cells (9-day treatment); type: cell-based
Experimental: (§1) Here we evaluate the antiviral efficacy of picolinic acid and fusaric acid against human hepatitis B virus (HBV). HepG2.2.15 cells, a cell line that was stably transfected with HBV genome was used to study the antiviral effects of PA and FA against HBV. HepG2.2.15 cells were cultured under standard conditions. HepG2.2.15 cells were seeded in a 96-well plate at 2×10^4 cells/well and grown for 24 hours. The medium was replaced with 100 uL of medium containing PA at increasing concentrations (0, 10, 100, 250, and 500 ug/mL). The concentrations of FU used were 0, 1, 10, 30, 60, and 100 ug/mL. The cells were incubated at 37° C. for 9 days. The control medium and the medium containing the antivirals were changed every 24 hours. At day 9, the culture medium containing the released HBV virions was collected, the cells washed with PBS, and lysed with lysis buffer. All samples were stored at −70° C. until analyzed.

[2] = tested on: Ava.5 cell line; assay: Cytotoxicity by OD in HCV replicon cells; type: cell-based
Experimental: (§2) Here we determine the effects of Picolinic acid and Fusaric Acid on HCV replicon cell lines. The HCV replicons (qRTCPCR/iCycler) were contained in the Ava.5 cell line tested. Normalization by OD and serial dilutions were done in the untreated cell line. The experimental design was as follows: cells were grown in 12 well cell culture plates; the compounds interaction was done for 24 hours; at extraction, cell confluence was 75%; and RNA was extracted using Qiagen Rneasy extraction kit.

[3] = tested on: human hepatitis B virus (HBV); assay: HBV DNA by real-time PCR after 9-day treatment of HepG2.2.15 cells; type: cell-based; conditions: 9 days; for EC50: 216 h, HepG2.2.15 cells, read-out: overall EC50 against HBV; for inhibition at 60 µg/mL / inhibition at 250 µg/mL: HepG2.2.15, 216 h; for inhibition at 60 µg/mL: 60 ug/mL; for inhibition at 250 µg/mL: 250 ug/mL
Experimental: as §1
HBV DNA from drug-treated […] cell culture medium and cell lysates was extracted using QIAamp DNA mini kit, according to manufacturer's specifications.
PCR reaction was performed in 20 uL, comprising the following compounds: dH2O; 25 mM MgCl2; 10 uM sense primer; 10 uM antisense primer; LightCycler Probe 1 (fluorescent-labeled, 5 uM); LightCycler Probe 2 (LC Red 640-labeled, 10 uM); LC FastStart DNA Master Hyb Probes; and Uracil DNA glycosylase (1 uL).
PCR mix was aliquoted and 5 uL DNA template was then added to the PCR mix. A range of HBV plasmid DNA (1×10^8, 1×10^7, 1×10^6, [ . . . ], 1×10^2, 25 copies) were used as standards for quantitative analysis.
To study the antiviral activities of PA and FA against HBV, HepG2.2.15 cells were incubated with increasing concentrations of test compounds for 9 days with medium change daily. At day 9, the medium containing secreted HBV virions was collected and used for extraction of extracellular virus DNA. The cells were lysed by 0.5% SDS and used for extraction of intracellular virus DNA. DNA was extracted using Qiagen column and then quantitatively detected by real-time PCR assay.

[4] = tested on: HEL cells; assay: Toxicity to HEL cells
[5] = tested on: Huh7B/Sindbis cells; assay: Cytotoxicity by OD in Sindbis replicon cells; type: cell-based; conditions: concentrations tested
Experimental: (§3) Here we determine the effects of Picolinic acid and Fusaric Acid on Sindbis replicon in Huh7B/Sindbis cells. The Sindbis replicons were studied by qRTCPCR/iCycler. Normalization by OD and serial dilutions were done in the untreated cell line. The experimental design was as follows: cells were grown in 12 well cell culture plates; the compounds interaction was done for 24 hours; at extraction, cell confluence was 75%; and RNA was extracted using Qiagen Rneasy extraction kit.

[6] = tested on: HCV replicon; assay: HCV replicon (qRTCPCR/iCycler) in Ava.5 cell line; type: cell-based, Human Hepatitis C Virus; conditions: Hepatitis C virus, Ava5, 24 h, read-out: inhibition of HCV replicon
Experimental: as §2

[7] = tested on: VZV Ellen strain; assay: VZV virus yield reduction assay in HEL-299 cells (real-time PCR); type: cell-based, Varicella-Zoster Virus; conditions: for Total VZV DNA copies (mean) / Total VZV DNA, % of control: 3 days
[8] = tested on: CMV AD 169 strain; assay: CMV replication in HEL-299 cells (virus titration); type: cell-based, Cytomegalovirus; conditions: Human betaherpesvirus 5, 72 h, 3 days, read-out: EC50 for inhibition of CMV replication
Experimental: CMV AD 169 strain (ATCC) was used in the experiments. A CMV susceptible cell line, human fibroblast cells HEL-299 (ATCC), was used in the plaque reduction assays.
90% confluent HEL-299 cells were washed and then Infected with CMV AD169 at 0.5 moi for 2 h at 37° C. Following removal of viral inoculums, the Infected cells were washed and exposed to different concentrations of PA (final concentrations: 0, 10, 100, 250, 500, and 1000 ug/mL) or FA (final concentrations: 0, 1, 10, 30, 60, and 100 ug/mL for 3 days. The culture medium was collected for titration of released virions and the cells were harvested for titration of intracellular virions.
90% confluent HEL-299 cells in 24 well plates were Infected with 200 uL of CMV dilutions at 37° C. for 2 h. Following removal of virus inoculums, the infected cells were washed with PBS and overlaid with 0.5% methylcellulose in culture medium. We then treated CMV Infected cells for 3 days at 37° C. with different concentrations of PA and FA. The culture medium was collected for titration of released virus and the cells were harvested for titration of intracellular virus.

[9] = tested on: Sindbis replicon; assay: Sindbis replicon (qRTCPCR/iCycler) in Huh7B/Sindbis cells; type: cell-based, Sindbis virus; conditions: for inhibition of Sindbis replicon: at all concentrations tested
Experimental: as §3

[10] = read-out: inhibition of intracellular HBV DNA
[11] = read-out: inhibition of released HBV DNA

## CCCCc1ccc(C(=O)O)nc1 [FA, fusaric acid]
[1]; 100 ug/ml
  toxicity to HepG2.2.15 cells: 100 ug/ml was toxic to HepG2.2.15 cells.
[2]; 100 ug/mL
  overt cytotoxicity by OD: no overt cytotoxicity
[3]
  EC50: > 60 µg/mL
[3]; [10]
  inhibition at 60 µg/mL: 28%
[3]; [11]
  inhibition at 60 µg/mL: 76.5%
[4]; 60 ug/mL
  toxicity to HEL cells: no significant toxicity
[5]
  overt cytotoxicity by OD: No overt cytotoxicity
[6]
  inhibition at 100 µg/mL: ~60%
[7]; FA 1 μg/ml
  Total VZV DNA copies (mean): 753340 copies
  Total VZV DNA, % of control: 77.7 % of control
[7]; FA 10 μg/ml
  Total VZV DNA copies (mean): 685520 copies
  Total VZV DNA, % of control: 70.7 % of control
[7]; FA 30 μg/ml
  Total VZV DNA copies (mean): 103405 copies
  Total VZV DNA, % of control: 10.7 % of control
[7]; FA 60 μg/ml
  Total VZV DNA copies (mean): 66230 copies
  Total VZV DNA, % of control: 6.8 % of control
[7]; Human alphaherpesvirus 3, HEL 299, read-out: EC50 against VZV replication, 50% reduction of total VZV DNA copies, HEL-299 cells
  EC50: ~14 µg/mL (≈ 78.1 µM)
[7]; Human alphaherpesvirus 3, HEL 299, read-out: EC90 against VZV replication, total VZV DNA copies, HEL-299 cells
  EC90: ~41 µg/mL (≈ 229 µM)
[8]
  EC50: ~60 µg/mL (≈ 335 µM)
[9]; FA 5, 24 hours
  Sindbis replicon % CTRL: 14.0 % CTRL
  Sindbis replicon AVE: 22.7
  Sindbis replicon, single reading: 22.7 and 23.3 and 23.1 and 21.7
[9]; FA 25, 24 hours
  Sindbis replicon % CTRL: 11.6 % CTRL
  Sindbis replicon AVE: 22.9
  Sindbis replicon, single reading: 23.0 and 22.7 and 22.4 and 23.5
[9]; FA 50, 24 hours
  Sindbis replicon % CTRL: 9.3 % CTRL
  Sindbis replicon AVE: 23.3
  Sindbis replicon, single reading: 22.8 and 23.4 and 22.7 and 24.2
[9]; FA 100, 24 hours
  Sindbis replicon % CTRL: 8.8 % CTRL
  Sindbis replicon AVE: 23.5
  Sindbis replicon, single reading: 22.2 and 23.8 and 24.0 and 23.9
[9]
  inhibition of Sindbis replicon: > 85%

## O=C(O)c1ccccn1 [PA, picolinic acid]
[1]; 500 ug/ml
  toxicity to HepG2.2.15 cells: 500 ug/ml was slightly toxic to HepG2.2.15 cells.
[2]; 250 ug/mL
  overt cytotoxicity by OD: no overt cytotoxicity
[3]
  EC50: ~139 µg/mL (≈ 1130 µM)
[3]; [10]
  inhibition at 250 µg/mL: 79.4%
[3]; [11]
  inhibition at 250 µg/mL: 72.3%
[4]; 500 ug/mL
  toxicity to HEL cells: no significant toxicity
[5]
  overt cytotoxicity by OD: no overt cytotoxicity
[6]
  inhibition at 250 µg/mL: ~60%
[7]; Human alphaherpesvirus 3, 50% reduction of total VZV DNA copies, HEL-299 cells, read-out: EC50 against VZV replication
  EC50: ~89 µg/mL (≈ 723 µM)
[7]; Human alphaherpesvirus 3, total VZV DNA copies, HEL-299 cells, read-out: EC90 against VZV replication
  EC90: ~505 µg/mL (≈ 4100 µM)
[8]
  EC50: ~230 µg/mL (≈ 1870 µM)
[9]; PA 100, 24 hours
  Sindbis replicon % CTRL: 6.5 % CTRL
  Sindbis replicon AVE: 23.7
  Sindbis replicon, single reading: 24.1 and 23.7 and 23.5 and 23.6
[9]; PA 300, 24 hours
  Sindbis replicon % CTRL: 11.3 % CTRL
  Sindbis replicon AVE: 23.3
  Sindbis replicon, single reading: 24.3 and 23.7 and 21.6
[9]; PA 400, 24 hours
  Sindbis replicon % CTRL: 6.7 % CTRL
  Sindbis replicon AVE: 23.7
  Sindbis replicon, single reading: 24.0 and 23.5 and 23.2 and 24.3
[9]
  inhibition of Sindbis replicon: greater than 90%
[9]; column PA 200, 24 hours
  Sindbis replicon % CTRL: 6.5 % CTRL
  Sindbis replicon AVE: 23.8
  Sindbis replicon, single reading: 24.1 and 22.9 and 24.2
